Measurements reported in patent US20030143282A1, “Adenosine A3 receptor agonist” (priority 2002, published 2003).

Tests used:
bone marrow cells = test: [3H]-thymidine incorporation assay, bone marrow cell proliferation; type: cell-based, C57BL/6J mice; conditions: 0.1, 0.05 and 0.001 μM
Method: Bone marrow cells were obtained from the femur of C57BL/6J mice. Cells were disaggregated by passing through a 25 G needle.
(§1) [^3H]-tymidine incorporation assay was used to evaluate cell growth. 1.5×10^4/ml B-16-F10 melanoma or 3×10^5/ml bone marrow cells were cultured in RPMI medium containing 10% FBS in 96 well microtiter plates. These cultures were incubated in the presence of MCM in a concentration of 50%. Since MCM was prepared in PBS, cultures containing tumor or bone marrow cells suspended in 50% PBS served as controls. During the last 18 hours of incubation, each well was pulsed with 1 μCi [^3H]-thymnidine. The cells were harvested and the [^3H]-thymnidine uptake was determined in an LKB liquid scintillation counter (LKB, Piscataway, N.J., USA).
(§2) Results were expressed as % of cell proliferation inhibition or stimulation, calculated according to the following formula: [formula]
where A represents the cell count of sample and B represents the cell count of the control. According to this calculation control values are 0% of inhibition or stimulation.
To eliminate adenosine from MCM preparations, adenosine deaminase (ADA) (Sigma, Chemical Co. St. Louis, Mo., USA) was added to the MCM for 1 hour. […]
(§3) In this set of experiments, the question whether the effect of MCM+ADA on tumor or normal cells was mediated through A3AR was examined. […] [^3H]-thymidine uptake was determined as described above.

B-16-F10 melanoma cells = test: [3H]-thymidine incorporation assay, tumor cell proliferation; type: cell-based, murine; conditions: B16-F10 cells; 0.1, 0.05 and 0.001 μM
Method: The B-16-F10 murine melanoma cell line was used in the in vitro and in vivo experiments. Cells were maintained in RPMI medium containing 10% FBS, penicillin and streptomycin. They were transferred twice weekly to a freshly prepared medium.
as §1, §2
where A represents the cell count of sample and B represents the cell count of the control. According to this calculation control values are 0% of inhibition or stimulation. […]
as §3

B16-F10 melanoma cells = test: Melanoma lung metastatic foci growth in mice inoculated with B16-F10 cells; type: in vivo, C57BL/6J mice; conditions: adenosine 268 μg/kg body weight, administered orally or intraperitoneally
Method: The B-16-F10 murine melanoma cell line was used in the in vitro and in vivo experiments. Cells were maintained in RPMI medium containing 10% FBS, penicillin and streptomycin. They were transferred twice weekly to a freshly prepared medium. To examine the effect of the different preparations on tumor cell growth, B16-F10 (2.5×10^5) melanoma cells were intravenously inoculated to C57BL/6J mice. Each group contained 20 mice and experiments were repeated at least 4 times. Mice were treated orally according to the following protocol starting one day after tumor inoculation: 1. Adenosine—268 μg/kg body weight 2. MCM 4AU twice daily. 3. MCM+ADA, 4AU twice daily. 4. Vehicle—twice daily. An additional group of mice was treated daily intraperitoneally with adenosine (268 μg/kg body weight). Mice were sacrificed after fifteen days, lungs removed and black metastatic foci were counted using a Dissecting Microscope.

[1] = Myeloprotective effect in mice treated with cyclophosphamide; type: in vivo; conditions: adenosine administered orally or intraperitoneally, after cyclophosphamide
Method: The myeloprotective effect of the various preparations were examined by injecting mice intraperitoneally with 50 mg/kg body weight of cyclophosphamide. Each group contained 10 mice and experiments were repeated at least 4 times. Adenosine, MCM (4 activity units) or MCM+ADA (4 activity units) were each orally administered 48 h and 72 h following the chemotherapy. After 120 h blood samples were withdrawn. The number of leukocytes and percent of neutrophils were evaluated.

Row | Compound | effect of MRS-1220 by itself on proliferation (bone marrow cells) | effect of MRS-1220 by itself on proliferation (B-16-F10 melanoma cells) | inhibition of tumor growth (B16-F10 melanoma cells) | chemoprotective effect [1]
1 | O=C(Cc1ccccc1)Nc1nc2ccc(Cl)cc2c2nc(-c3ccco3)nn12 [MRS-1220, 9-chloro-2-(2-furanyl)-5-[(phenylacetyl)amino] [1,2,4,]-triazolo[1,5-c] quinazoline] | no effect | no effect | – | –
2 | Nc1ncnc2c1ncn2[C@@H]1O[C@H](CO)[C@@H](O)[C@H]1O [Adenosine, adenosine] | – | – | failed to inhibit tumor growth | failed to inhibit tumor growth or act as a chemoprotective agent
